Here are results for 39 compounds from US7906522B2, “2-aminoquinazoline derivatives” (Kyowa Hakko Kirin Co., Ltd, priority 2005, dated 2011).

Structures are written as SMILES.

The target in this assay is T1, Activated human p38α (Homo sapiens, UniProt Q16539).
T1 construct: purchased Upstate Biotechnology Inc. 14-251
T1 sequence (Q16539 whole entry): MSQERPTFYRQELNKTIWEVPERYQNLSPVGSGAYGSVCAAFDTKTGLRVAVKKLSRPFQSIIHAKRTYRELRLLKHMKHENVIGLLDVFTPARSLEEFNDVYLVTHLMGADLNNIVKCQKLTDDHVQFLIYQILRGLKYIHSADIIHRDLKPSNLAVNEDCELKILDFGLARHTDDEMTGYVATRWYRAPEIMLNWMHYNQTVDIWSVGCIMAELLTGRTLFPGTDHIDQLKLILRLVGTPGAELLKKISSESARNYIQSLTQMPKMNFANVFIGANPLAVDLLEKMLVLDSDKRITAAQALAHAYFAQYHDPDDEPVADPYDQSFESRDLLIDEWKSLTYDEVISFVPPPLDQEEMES
The experiment in a line: p38MAP kinase inhibition test. It counts as biochemical. The following applies: at a concentration of 1 μmol/L; substrate myelin basic protein, ATP 20 μmol/L, [γ-32P]ATP; read-out: enzyme inhibitory activity. In outline:
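Radiometric kinase assay with myelin basic protein (20 μg/assay) as substrate, 20 μmol/L ATP plus [γ-32P]ATP, MOPS pH 7.2 with MgCl2 18.75 mmol/L. Reaction run 15 min at 30° C., stopped with phosphoric acid; 32P-MBP captured on phosphocellulose and counted by scintillation.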
`COc1cc2nc(NC(C)C)ncc2cc1-c1cc(NC(C)=O)ccc1F` [Compound 233, 6-(5-Acetylamino-2-fluorophenyl)-2-isopropylamino-7-methoxyquinazoline]: the inhibition at 1 µM was at least 50%.
Then `COc1cc2nc(NC(C)C)ncc2cc1-c1ccccc1F` [Compound 190, 6-(2-Fluorophenyl)-2-isopropylamino-7-methoxyquinazoline], with at least 50%; and `COc1cc2nc(NC(C)C)ncc2cc1-c1cccc(NC(=O)c2ccccc2C(F)(F)F)c1` [Compound 217, 2-Isopropylamino-7-methoxy-6-{3-[(2-trifluoromethylphenyl)carbonylamino]phenyl}quinazoline], with at least 50%; and `COc1cc2nc(NC(C)C)ncc2cc1C(=O)c1ccccc1` [Compound 109, 6-Benzoyl-2-isopropylamino-7-methoxyquinazoline], with at least 50%.
Consider `CC(C)Nc1ncc2cc(-c3cccc(NC(=O)C4CC4)c3)c(O)cc2n1` [Compound 296, 6-[3-(Cyclopropylcarbonylamino)phenyl]-7-hydroxy-2-(isopropylamino)quinazoline], for which the inhibition at 1 µM is at least 50%.
As for `CC(C)Nc1ncc2cc(-c3ccccc3Cl)c(OCc3cccc(C(=O)O)c3)cc2n1` [Compound 29, 7-(3-Carboxyphenylmethyloxy)-6-(2-chlorophenyl)-2-isopropylaminoquinazoline], the figure is at least 50%.
Then `CC(C)Nc1ncc2cc(-c3ccccc3Cl)c(OCC(=O)N3CCOCC3)cc2n1` [Compound 39, 6-(2-Chlorophenyl)-2-isopropylamino-7-[(morpholinocarbonyl)methyloxy]quinazoline], with at least 50%; and `COc1cc2nc(N[C@H](C)C(C)(C)O)ncc2cc1-c1ccccc1Cl` [Compound 7, (R)-6-(2-Chlorophenyl)-2-(2-hydroxy-1,2-dimethylpropylamino)-7-methoxyquinazoline], with at least 50%; and `COc1cc2nc(NC(C)C)ncc2cc1-c1cccc(OC)c1F` [Compound 207, 6-(2-Fluoro-3-methoxyphenyl)-2-isopropylamino-7-methoxyquinazoline], with at least 50%.
As to `COc1cc2nc(NC(C)C)ncc2cc1-c1cc(NC(C)=O)ccc1CO` [Compound 225, 6-[5-Acetylamino-2-(hydroxymethyl)phenyl]-2-isopropylamino-7-methoxyquinazoline], the inhibition at 1 µM is at least 50%.
Then `Cc1ccccc1-c1cc2cnc(Nc3c(C)cccc3C(C)C)nc2cc1O` [Compound 177, 7-Hydroxy-2-(2-isopropyl-6-methylanilino)-6-(2-methylphenyl)quinazoline], with at least 50%; and `Cc1cc2nc(NC(C)C)ncc2cc1-c1cccc(NC(=O)c2ccnc(N3CCOCC3)c2)c1` [Compound 279, 2-Isopropylamino-7-methyl-6-{3-[(2-morpholinopyridin-4-yl)carbonylamino]phenyl}quinazoline], with at least 50%; and `CC(C)Nc1ncc2cc(-c3ccccc3Cl)c(OCC(=O)N3CCN(C)CC3)cc2n1` [Compound 40, 6-(2-Chlorophenyl)-2-isopropylamino-7-[(4-methylpiperazin-1-ylcarbonyl)methyloxy]quinazoline], with at least 50%.
In the case of `CC(C)Nc1ncc2cc(C(=O)c3cccc(O)c3)c(O)cc2n1` [Compound 123, 7-Hydroxy-6-(3-hydroxybenzoyl)-2-(isopropylamino)quinazoline], the inhibition at 1 µM is at least 50%.
In the case of `Cc1ccc(NC(=O)C2CCC2)cc1-c1ccc2nc(NC(C)C)ncc2c1` [Compound 265, 6-(5-Cyclobutylcarbonylamino-2-methylphenyl)-2-(isopropylamino)quinazoline], the inhibition at 1 µM is at least 50%.
As for `COc1cc2nc(NC(C)C)ncc2cc1-c1cccc(C(C)=O)c1` [Compound 199, 6-(3-Acetylphenyl)-2-isopropylamino-7-methoxyquinazoline], the figure is at least 50%.
As to `COc1cc2nc(NC3CCN(S(C)(=O)=O)CC3)ncc2cc1-c1ccccc1NC(C)=O` [Compound 239, 6-(2-Acetylaminophenyl)-7-methoxy-2-[1-(methylsulfonyl)piperidin-4-ylamino]quinazoline], the inhibition at 1 µM was at least 50%.
As to `CS(=O)(=O)N1CCC(Nc2ncc3cc(C(=O)c4ccccc4)c(O)cc3n2)CC1` [Compound 136, 6-Benzoyl-7-hydroxy-2-[1-(methylsulfonyl)piperidin-4-ylamino]quinazoline], the inhibition at 1 µM is at least 50%.
Regarding `COCOc1c(-c2ccccc2Cl)cc2cnc(NC(C)C)nc2c1-c1ccc(C(=O)O)cc1` [Compound 91, 8-(4-Carboxyphenyl)-6-(2-chlorophenyl)-2-isopropylamino-7-(methoxymethyloxy)quinazoline], the inhibition at 1 µM was at least 50%.
In the case of `COc1cc2nc(NC(C)C)ncc2cc1C(=O)c1cccc(C)c1` [Compound 114, 2-Isopropylamino-7-methoxy-6-(3-methylbenzoyl)quinazoline], the inhibition at 1 µM was at least 50%.
Then `COc1cc2nc(N[C@H]3CC[C@H](NS(C)(=O)=O)CC3)ncc2cc1-c1ccccc1Cl` [Compound 146, 6-(2-Chlorophenyl)-7-methoxy-2-[trans-4-(methylsulfonylamino)cyclohexylamino]quinazoline], with at least 50%.
As for `COc1cc2nc(NC(C)C)ncc2cc1-c1cccc(NC(C)=O)c1` [Compound 52, 6-[(3-Acetylamino)phenyl]-2-isopropylamino-7-methoxyquinazoline], the figure is at least 50%.
As to `CC(C)CNc1ncc2cc(-c3ccccc3Cl)c(O)cc2n1` [Compound 160, 6-(2-Chlorophenyl)-7-hydroxy-2-isobutylaminoquinazoline], the inhibition at 1 µM was at least 50%.
As for `Cc1ccc(NC(=O)C2CC2)cc1-c1ccc2nc(NC(C)C)ncc2c1` [Compound 264, 6-(5-Cyclopropylcarbonylamino-2-methylphenyl)-2-(isopropylamino)quinazoline], the inhibition at 1 µM was at least 50%.
Then `COc1cc2nc(NC3CCN(S(C)(=O)=O)CC3)ncc2cc1-c1ccccc1C(=O)O` [Compound 242, 6-(2-Carboxyphenyl)-7-methoxy-2-[1-(methylsulfonyl)piperidin-4-ylamino]quinazoline], with at least 50%.
Then `COc1cc2nc(NC3CCN(S(C)(=O)=O)CC3)ncc2cc1-c1ccccc1C` [Compound 164, 7-Methoxy-6-(2-methylphenyl)-2-[1-(methylsulfonyl)piperidin-4-ylamino]quinazoline], with at least 50%; and `COc1cc2nc(NC(C)C)ncc2cc1-c1cccc(NC(=O)Nc2ccccc2)c1` [Compound 210, 2-Isopropylamino-7-methoxy-6-[3-(3-phenylureido)phenyl]quinazoline], with at least 50%; and `CC(C)Nc1ncc2cc(-c3ccccc3Cl)c3oc(C(C)(C)O)cc3c2n1` [Compound 112, 6-(2-Chlorophenyl)-8-(1-hydroxy-1-methylethyl)-2-(isopropylamino)furo[2,3-h]quinazoline], with at least 50%.
Regarding `Cc1ccc(NC(=O)c2cnccn2)cc1-c1ccc2nc(NC(C)C)ncc2c1` [Compound 261, 2-Isopropylamino-6-[2-methyl-5-(pyrazinylcarbonylamino)phenyl]quinazoline], the inhibition at 1 µM was at least 50%.
As for `CC(C)Nc1ncc2cc(-c3ccccc3Cl)c(OC(=O)c3ccccc3)cc2n1` [Compound 20, 7-Benzoyloxy-6-(2-chlorophenyl)-2-isopropylaminoquinazoline], the figure is at least 50%; as for `CC(C)Nc1ncc2cc(-c3ccccc3Cl)c(OCC(=O)N3CCCCC3)cc2n1` [Compound 38, 6-(2-Chlorophenyl)-2-isopropylamino-7-[(piperidinocarbonyl)methyloxy]quinazoline], at least 50%.
As to `COc1cc2nc(NC3CCN(S(=O)(=O)CC(F)(F)F)CC3)ncc2cc1-c1ccccc1Cl` [Compound 14, 6-(2-Chlorophenyl)-7-methoxy-2-[1-(2,2,2-trifluoroethylsulfonyl)piperidin-4-ylamino]quinazoline], the inhibition at 1 µM was at least 50%.
Then `Cc1ccccc1-c1ccc2nc(NC3CCN(S(C)(=O)=O)CC3)ncc2c1` [Compound 275, 6-(2-Methylphenyl)-2-[1-(methylsulfonyl)piperidin-4-ylamino]quinazoline], with at least 50%; and `CC(C)Nc1ncc2cc(-c3ccccc3Cl)c(OCC(=O)N(C)C)cc2n1` [Compound 37, 6-(2-Chlorophenyl)-7-(N,N-dimethylcarbamoylmethyloxy)-2-isopropylaminoquinazoline], with at least 50%.
As for `COc1cc2nc(NCC(C)C)ncc2cc1-c1ccccc1Cl` [Compound 151, 6-(2-Chlorophenyl)-2-isobutylamino-7-methoxyquinazoline], the figure is at least 50%.
`Cc1ccc(NC(=O)c2ccncc2)cc1-c1ccc2nc(NC(C)C)ncc2c1` [Compound 259, 2-Isopropylamino-6-{2-methyl-5-[(4-pyridyl)carbonylamino]phenyl}quinazoline]: the inhibition at 1 µM is at least 50%.
As for `COc1cc2nc(NC(C)C)ncc2cc1-c1cccc(NC(=O)c2ccc(OC(F)(F)F)cc2)c1` [Compound 214, 2-Isopropylamino-7-methoxy-6-{3-[(4-trifluoromethoxyphenyl)carbonylamino]phenyl}quinazoline], the figure is at least 50%; as for `COc1cc2nc(N[C@@H](C)C(C)C)ncc2cc1-c1ccccc1C` [Compound 168, (S)-2-(3-methyl-2-butylamino)-7-methoxy-6-(2-methylphenyl)quinazoline], at least 50%.
As for `COc1cc2nc(NC(C)C)ncc2cc1-c1cccc(NC(=O)c2ccncc2)c1` [Compound 215, 2-Isopropylamino-7-methoxy-6-{3-[(4-pyridyl)carbonylamino]phenyl}quinazoline], the figure is at least 50%.
